Assay results taken from US5561110A, “Method for the treatment of the complications and pathology of diabetes” (Peptide Technology Limited, priority 1994, dated 1996).
“Also recorded” adds a separate entry of the source.

Tests used:
[1] = tested on: Salmonella typhimurium TA 100; assay: Ames test, plate incorporation, his- to his+ reversion
Experimental: Preparation of glycated compounds was performed according to Kim et al. (1991). In brief, D-glucose (1M) and each of the following: L-carnosine, L-lysine, L-alanine (all 1M) were dissolved in distilled water, the pH adjusted to 7 and the mixtures heated at 100° C. for 80 min. The solutions (50 μl and 250 μl ) were evaluated against strain TA 100 of Salmonells typhimurium using the plate incorporation method (Maron & Ames, 1983) with or without metabolic activation by a standard rat liver microsomal (S-9) preparation.
Salmonella tyrphimurium TA 100 indicator strain his^- to his^+ reversion system. Data represent the mean number of revertants per plate and their standard deviation for the test solutions and controls with and without metabolic stimulation by rat liver microsomal (S-9) preparation.

diabetic models = conditions: 30 weeks of feeding; cited from earlier work
ovalbumin = assay: Glycation of ovalbumin by DHA with anti-glycator, gel filtration on Superose 6; type: biochemical; conditions: for effectiveness as anti-glycator, in words: ovalbumin + DHA, 60° C., 7 hours
Experimental: Gelfiltration Chromatography of Glycated Proteins HPLC Specifications:
COLUMN Superose 6, Pharmacia
SAMPLE: 100μ of Protein Sample (Approximately 100 μg)
Calibration was performed using Pharmacia high molecular weight (HMW) and low molecular weight (LMW) calibration kit.
To compare the effect of both carnosine and aminoguanidine on glycation bovine serum albumin (BSA) and ovalbumin was incubated with a constant amount of DHA and varying concentrations of either anti-glycator at 60° C. At the start of the reaction and after seven hours aliquots were taken and the progress of the reaction analysed by gel filtration on a Superose 6 column. Crosslinking or fragmentation of protein became clearly visible as a change in retention time compared to the untreated protein used as control. Some compounds eluted after theoretical retention time for the smallest compound. They tend to interfere with the column resin even at high ionic strength and presence of a detergent (Tween 20). They are not necessary small compounds but rather highly charged and reactive. […] In all aminoguanidine samples uncharacterised reaction products are formed predominantly at high concentrations (described as low molecular weight form "LMW" because the retention time is longer then observed for all other compounds). […] LMW were also observed when ovalbumin was replaced by bovine serum albumin in the incubation mixture (not shown). The LMW forms were never present in the camosine samples. A good measure for the effectiveness of an
Legend: ovalbumin was incubated with DHA for 7 hours in the presence of
various concentrations of either carnosine or aminoguanidine. Reaction
products were separated on a gelfiltration column (Superose 6) and peaks
grouped according to their retention times: HMW, high molecular weight
(15-30 min); albumin monomer (35 min); and late eluting compounds LMW, lo
molecular weight (>40 min). Carnosine and aminoguanidine concentration
[control] 0 mM, [A] 600 mM, [B] 300 mn, [C] 100 mM, [D] 50 mM.

[2] = tested on: streptozotocin induced diabetic rat; assay: Formation of cataracts in streptozotocin induced diabetic rats; type: in vivo; conditions: after 8 week on carnosine diet (56 days), 2% in drinking water
Experimental: (§1) Male Sprague-Dawley rats weighing 200-250 g and 6 weeks of age were randomised to the following three treatment groups: control, diabetic, and carnosine-treated diabetic rats. Diabetes was induced with streptozotozen STZ(60 mg/kg body weight in citrate buffer, pH 4.5, i.v.), and all animals with plasma glucose levels >20 mM after 1 week were included in the study. Diabetic rats were randomised to receive either no therapy or 2% carnosine in drinking water.
Cataract is an opacification of the ocular lens sufficient to impair vision. Diabetes has been associated with cataract for many years and many laboratory experiments support the view that diabetes is the cause of one form of cataract. Diabetes in animals can be induced by streptozotozin and opacity of the lens starts to develop by 20 days after injection but dense opacities appear only after about 100 days depending on age at injection.
In cataract adducts of sugars to proteins including lens proteins have been identified and quantified. In most tissues there is little accumulation of late Maillard products even in diabetes but proteins in the lens nucleus have time not only to accumulate early glycation products but also for them to change into yellow Maillard products. […] Since this was measured at 56 days, the half way mark of the experiment, the trend indicates a reduction in cataract formation by carnosine feeding.

bovine serum albumin = assay: Dihydroxyacetone-induced modification (non-enzymic glycosylation, gel formation) of bovine serum albumin; type: biochemical; conditions: BSA 50 mg/ml, 250 mM dihydroxyacetone, 250 mM L-carnosine, 23° C., 4 weeks
Experimental: Physiological concentrations of bovine serum albumin (50 mg/ml in 50 mM Na-phosphate buffer pH 7.0) were incubated with or without 250 mM dihydroxyacetone in the presence and absence of 250 mM L-carnosine at 23° C. for 4 weeks. The experiment was performed under sterile conditions and the ionic strength was the same in all vials.

[3] = tested on: Male New Zealand white cross rabbits fed a high cholesterol (2%) diet; assay: Atherosclerotic plaque formation in aorta of cholesterol-fed rabbits; type: in vivo, rabbit; conditions: 8 weeks
Experimental: (§2) Male New Zealand white cross rabbits fed a high cholesterol (2%) diet were randomised to control or carnosine treatment 2% and plasma was assayed for cholesterol and triglycerides and carnosine. All animals received 100 g of food pellets/day and free access to water.
(§3) At the end of the 8 week treatment period, the rabbits were anaesthetised with pentobarbitone (325 mg/kg) and the total aorta removed. The arch, thoracic and abdominal regions were isolated by cutting the aorta circumferentially 1.0 cm proximal to the first pair of intercostal arteries and 0.3 cm above the coeliac artery. The adventitia was carefully dissected away, and the artery longitudinally cut to expose the intimal surface. The aorta was fixed in 10% buffered formalin for 48 hours. The lipid plaques in these vessels were then stained using Sudan IV and mounted with an aqueous mounting medium (Kaiser's Glycerol Jelly). The lesioned areas were directly traced from the mounted sections using an image analyser (Eye Com 850 image processor). Computer-aided planimetry was used to macroscopically determine the percentage of the affected area. Representative segments of atherosclerotic plaque were removed for confirmation by light microscopy. Results are expressed as mean ±SEM.
Coronary heart disease is one of the most common causes of deaths in diabetics and non-diabetics alike. […]

[4] = tested on: streptozotocin induced diabetic rat; assay: Albuminuria, glycated haemoglobin and blood glucose in diabetic rats; type: in vivo; conditions: week 8
Experimental: as §1

[5] = Body weight and organ weights of cholesterol-fed rabbits; type: in vivo, rabbit
Experimental: as §2, §3

mammals = conditions: cited from earlier work

CC(=O)Nc1ccc2c(c1)Cc1ccccc1-2 [2AAF, reference compound]
Revertants per Plate with TA 100, With S-9 ([1]; positive control, dose not given): 500

N=C(N)NN [Aminoguanidine, aminoguanidine, reference compound]
amount of glycated haemoglobin (diabetic models): does not reduce | Percent Area of Chromatogram, HMW (ovalbumin; after 7 hours, [A] 600 mM): 0% | Percent Area of Chromatogram, LMW (ovalbumin; after 7 hours, [A] 600 mM): 69% | Percent Area of Chromatogram, Monomer (ovalbumin; after 7 hours, [A] 600 mM): 31% | Percent Area of Chromatogram, HMW (ovalbumin; after 7 hours, [B] 300 mn): 8% | Percent Area of Chromatogram, LMW (ovalbumin; after 7 hours, [B] 300 mn): 72% | Percent Area of Chromatogram, Monomer (ovalbumin; after 7 hours, [B] 300 mn): 20% | Percent Area of Chromatogram, HMW (ovalbumin; after 7 hours, [C] 100 mM): 0% | Percent Area of Chromatogram, LMW (ovalbumin; after 7 hours, [C] 100 mM): 49% | Percent Area of Chromatogram, Monomer (ovalbumin; after 7 hours, [C] 100 mM): 41% | Percent Area of Chromatogram, HMW (ovalbumin; after 7 hours, [D] 50 mM): 38% | Percent Area of Chromatogram, LMW (ovalbumin; after 7 hours, [D] 50 mM): 22% | Percent Area of Chromatogram, Monomer (ovalbumin; after 7 hours, [D] 50 mM): 40% | Percent Area of Chromatogram, HMW (ovalbumin; t0 hours, [A] to [D] 600-50 mM): 0% | Percent Area of Chromatogram, LMW (ovalbumin; t0 hours, [A] to [D] 600-50 mM): 0% | Percent Area of Chromatogram, Monomer (ovalbumin; t0 hours, [A] to [D] 600-50 mM): 100%

NCCC(=O)N[C@@H](Cc1cnc[nH]1)C(=O)O [carnosine, β-alanyl-L-histidine]
Revertants per Plate with TA 100, With S-9 ([1]; Dose 50 μl): 179 ± 15 | Revertants per Plate with TA 100, Without S-9 ([1]; Dose 50 μl): 154 ± 14 | Revertants per Plate with TA 100, With S-9 ([1]; Dose 250 μl): 149 ± 13 | Revertants per Plate with TA 100, Without S-9 ([1]; Dose 250 μl): 158 ± 11 | mutagenicity ([1]; TA 100, with or without S-9): not mutagenic | lens clarity compared to diabetic control group [2]: higher clarity (less opacity) | Resultant effects (appearance of albumin incubation) (bovine serum albumin): dark brown, fluid; also recorded: remained fluid | atherosclerotic plaque formation, in words [3]: can reduce but not prevent plaque formation | Blood Glucose (mean + SEM) [4]: 22.63 ± 3.00 mM | Percent Glycated Haemoglobin (HbAlc) [4]: 4.49 ± 0.14% | body weight versus control, in words ([5]; 8 week treatment period): no difference | weight of various organs versus control, in words ([5]; 8 weeks): No difference | Body Weight ([5]; Week 0): 3.33 ± 0.09 kg | Body Weight ([5]; Week 8): 2.68 ± 0.12 kg | Weight of organs, Heart ([5]; after 8 weeks treatment): 6.12 ± 0.27 g | Weight of organs, Kidney ([5]; after 8 weeks treatment): 17.53 ± 0.69 g | Weight of organs, Liver ([5]; after 8 weeks treatment): 124.40 ± 6.36 g | Percent Area of Chromatogram, HMW (ovalbumin; after 7 hours, [A] 600 mM): 9% | Percent Area of Chromatogram, LMW (ovalbumin; after 7 hours, [A] 600 mM): 0% | Percent Area of Chromatogram, Monomer (ovalbumin; after 7 hours, [A] 600 mM): 91% | Percent Area of Chromatogram, HMW (ovalbumin; after 7 hours, [B] 300 mn): 6% | Percent Area of Chromatogram, LMW (ovalbumin; after 7 hours, [B] 300 mn): 0% | Percent Area of Chromatogram, Monomer (ovalbumin; after 7 hours, [B] 300 mn): 94% | Percent Area of Chromatogram, HMW (ovalbumin; after 7 hours, [C] 100 mM): 3% | Percent Area of Chromatogram, LMW (ovalbumin; after 7 hours, [C] 100 mM): 0% | Percent Area of Chromatogram, Monomer (ovalbumin; after 7 hours, [C] 100 mM): 97% | Percent Area of Chromatogram, HMW (ovalbumin; after 7 hours, [D] 50 mM): 25% | Percent Area of Chromatogram, LMW (ovalbumin; after 7 hours, [D] 50 mM): 0% | Percent Area of Chromatogram, Monomer (ovalbumin; after 7 hours, [D] 50 mM): 75% | effectiveness as anti-glycator, in words (ovalbumin): more effective at all concentrations compared to aminoguanidine | effectiveness as anti-glycator, in words (ovalbumin; listed as Carnosine): reduced formation of high molecular weight compounds and was slightly more effective at low concentration compared to aminoguanidine | Percent Area of Chromatogram, HMW (ovalbumin; t0 hours, [A] to [D] 600-50 mM): 0% | Percent Area of Chromatogram, LMW (ovalbumin; t0 hours, [A] to [D] 600-50 mM): 0% | Percent Area of Chromatogram, Monomer (ovalbumin; t0 hours, [A] to [D] 600-50 mM): 100% | toxicity, in words (mammals; in vivo): virtually non-toxic | level that can be administered (mammals; mammals): 5-10 g/kg body weight
